# Assay results: patent US20080057107A1, “COMPOSITIONS FOR VAGINAL TREATMENT” (Kimberly-Clark Worldwide, Inc., priority 2004, published 2008)
# Tests used:
# [1] = tested on: Normal human vaginal epithelial cells; test: Cell proliferation, CellTiter 96 Aqueous One Solution; assay type: cell-based; settings: 10^-5 M, three days after treatment, absorbance at 490 nm, vs control medium, p<0.05
# Description: Normal human vaginal epithelial cells from Clonetics (NHVE 5164) were subcultured in basal PrEBM (Clonetics CC 3165) within 96 well plates at 37° C., 5% CO2. Cells were then exposed to medium containing mannose-6-phosphate (Sigma, M3655) at a concentration of 10^−5 M. Control groups received culture medium without mannose-6-phosphate. Cell proliferation was examined three days later and glycogen positive cells were detected five days after mannose-6-phosphate treatment. Cell proliferation was examined by using CellTiter 96 Aqueous One Solution from Promega (#TB245). Twenty μl of the reagent was added to each well. The plates were returned to cell culture incubator for 3 hours. The absorbance in each well was measured at 490 nm with a microtiter reader.
# [2] = tested on: Normal human vaginal epithelial cells; test: Periodic acid Schiff (PAS) assay for glycogen-positive cells; assay type: cell-based; settings: 10^-5 M, five days after treatment, manually counted, vs control medium
# Description: Normal human vaginal epithelial cells from Clonetics (NHVE 5164) were subcultured in basal PrEBM (Clonetics CC 3165) within 96 well plates at 37° C., 5% CO2. Cells were then exposed to medium containing mannose-6-phosphate (Sigma, M3655) at a concentration of 10^−5 M. Control groups received culture medium without mannose-6-phosphate. Cell proliferation was examined three days later and glycogen positive cells were detected five days after mannose-6-phosphate treatment.
# A periodic acid Schiff (PAS) assay was used to detect glycogen levels. Before the assay, cells were washed with PBS and fixed with a 10 vol % Formalin/ethanol solution for 1 hour at room temperature, followed by continuous rinsing with deionized (DI) water for 1 minute. A Harleco® PAS Assay Kit (from EM Science 64945/43) was used for glycogen detection. The basic principle is that the hydroxy groups on the glycogen units were first oxidized into aldehyde groups by periodic acid, and the aldehyde groups reacted with Schiff's agent to produce a red colorant. The specific assay operations were all done at room temperature as follows: • 1. Periodic acid reagent was added to the well/chamber and allowed to stand for 10 minutes. • 2. […] The numbers of glycogen-stained positive cells were manually counted under microscope. The data was analyzed by student's t test, and p<0.05 was considered significant. […]
smiles,measurement,setting,value
O=C[C@@H](O)[C@@H](O)[C@H](O)[C@H](O)COP(=O)(O)O [mannose-6-phosphate],vaginal cell proliferation,[1],significantly (p<0.05) increased
same,number of glycogen-positive cells,[2],significantly higher
